Measured values: US7488792B2, “Collagen-binding molecules that selectively home to tumor vasculature and methods of using same” (Burnham Institute for Medical Research, priority 2002, dated 2009)
Ends that are not written are not given here. * marks the point of attachment. FITC = O=C1OC2(c3ccc(O)cc3Oc3cc(O)ccc32)c2ccc(NC(=S)*)cc21

Experiments:
[1] = target: T1, collagen IV fragment of clone #3 (SEQ ID NO: 2) (Mus musculus, UniProt P08122); test: Binding of phage displaying clone #3 collagen IV fragment to immobilized CREKA peptide and its competition; design: effect of fibronectin on phage binding (clone #3 fragment / immobilized CREKA): dose or concentration left out as unconfirmed
T1 construct: made in house; host or cells: T7 phage (modified T7Select1-2b) amplified in BLT 5615 bacteria; cDNA from mouse 4T1 cells
T1 sequence (P08122 with tags, fused parts or gaps): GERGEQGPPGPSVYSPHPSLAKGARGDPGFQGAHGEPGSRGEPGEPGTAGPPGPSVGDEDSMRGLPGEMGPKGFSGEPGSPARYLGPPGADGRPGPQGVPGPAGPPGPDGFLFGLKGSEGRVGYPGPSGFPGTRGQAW
Protocol: Expression cloning was performed essentially as described in Essler and Ruoslahti, Proc. Natl. Acad. Sci., USA 99:2252-2257 (2002). CREKA (SEQ ID NO: 1) peptide was synthesized on a Symphony synthesizer (Rainin Instruments; Emeryville, Calif.) at The Burnham Institute peptide facility, and purified by high performance liquid chromatography. […] Biotin-labeled peptide (2 mg/ml) was immobilized on a streptavidin-coated 96 well Reacti-Bind® polystyrene strip plate (Pierce; Rockford, Ill.) by coating overnight at room temperature with 100 μl of 2 mg/ml biotin-CREKA (SEQ ID NO: 1) in PBS. The wells were subsequently treated three times with 200 μl SuperBlock® blocking buffer (Pierce).
Binding assays were performed as follows. […]
For competitions with free CREKA (SEQ ID NO: 1) peptide, phage displaying the clone #3 collagen IV fragment (SEQ ID NO: 2; 1×10^7 pfu) were applied to CREKA (SEQ ID NO: 1)-coated surfaces in 96-well ELISA plates prepared as described above, and incubated for one […] in the presence of 0.01 mg, 0.05 mg, or 0.1 mg soluble CREKA (SEQ ID NO: 1) peptide in 100 μl PBS. […] After 20 washes with 100 μl PBS, phage particles were recovered by infecting BL21 bacteria, and the number of attached phage determined. Phage output was determined as a percentage of phage recovered from wells not treated with soluble peptide.

MMTV PyMT tumors = test: Tissue localization of fluorescein- and rhodamine-labeled peptide after intravenous injection; type: in vivo, mouse; conditions: for detection of labeled peptide in MMTV PyMT tumors / detection of labeled peptide in normal tissues: 15 minutes after intravenous injection; for detection of labeled peptide in normal tissues: brain or liver
Protocol: Similarly, fluorescein (FITC) and rhodamine labeled CREKA (SEQ ID NO: 1) peptides also were detected in MMTV PyMT tumors 15 minutes after intravenous injection but were not observed in normal tissues such as the brain or liver (compare FIG. 3A with FIGS. 3B and 3C). […] As expected, control organs such as the heart, injected with rhodamine-labeled CREKA (SEQ ID NO: 1) and FITC-tomato-lectin, which stains blood vessels, were negative for CREKA (SEQ ID NO: 1) peptide staining (see FIG. 3F).
Peptide synthesis and labeling of peptides with fluorescein and rhodamine was carried out as described in Wender et al., Proc. Natl. Acad. Sci., USA 97:13003-13008 (2000), and Oku et al., supra, 2002, and detected essentially as follows. A 1 mg/ml solution of fluorescein-labeled CREKA (SEQ ID NO: 1) peptide in PBS was injected into the tail vein of MMTV PyMT mice. After 15 minutes or two hours of circulation, mice were perfused through the heart with 10 ml PBS, and the indicated organs harvested. Tissues were dissected, fixed with 3.7% paraformaldehyde for two hours, washed with PBS, and soaked in glycine (0.01%, pH 7.4) for 12 hours. Specimens were then treated with a sucrose gradient (12%, 15%, 18%), embedded in Tissue-Tek© (Miles Inc.; Elkhardt, Ind.) and frozen. Subsequently, 5 μm sections were prepared for fluorescence microscopy, and 50 μm sections were prepared for confocal microscopy. To detect blood vessels, 100 μl of 1 mg/ml solution of fluorescein-labeled tomato lectin (Vector Labs; Burlingame, Calif.) was injected into mice in PBS.

[2] = target: T2, collagen IV in MMTV-PyMT tumors (Mus musculus, UniProt P02463+P08122); test: Co-localization of injected FITC peptide with collagen IV immunostaining in tumors; type: in vivo; conditions: 100 μg injected into tail vein, 15 minutes; connective tissue surrounding tumor masses
T2 construct: from tissue; host or cells: breast tumors of MMTV PyMT mice
T2 sequence (P02463 173-1669): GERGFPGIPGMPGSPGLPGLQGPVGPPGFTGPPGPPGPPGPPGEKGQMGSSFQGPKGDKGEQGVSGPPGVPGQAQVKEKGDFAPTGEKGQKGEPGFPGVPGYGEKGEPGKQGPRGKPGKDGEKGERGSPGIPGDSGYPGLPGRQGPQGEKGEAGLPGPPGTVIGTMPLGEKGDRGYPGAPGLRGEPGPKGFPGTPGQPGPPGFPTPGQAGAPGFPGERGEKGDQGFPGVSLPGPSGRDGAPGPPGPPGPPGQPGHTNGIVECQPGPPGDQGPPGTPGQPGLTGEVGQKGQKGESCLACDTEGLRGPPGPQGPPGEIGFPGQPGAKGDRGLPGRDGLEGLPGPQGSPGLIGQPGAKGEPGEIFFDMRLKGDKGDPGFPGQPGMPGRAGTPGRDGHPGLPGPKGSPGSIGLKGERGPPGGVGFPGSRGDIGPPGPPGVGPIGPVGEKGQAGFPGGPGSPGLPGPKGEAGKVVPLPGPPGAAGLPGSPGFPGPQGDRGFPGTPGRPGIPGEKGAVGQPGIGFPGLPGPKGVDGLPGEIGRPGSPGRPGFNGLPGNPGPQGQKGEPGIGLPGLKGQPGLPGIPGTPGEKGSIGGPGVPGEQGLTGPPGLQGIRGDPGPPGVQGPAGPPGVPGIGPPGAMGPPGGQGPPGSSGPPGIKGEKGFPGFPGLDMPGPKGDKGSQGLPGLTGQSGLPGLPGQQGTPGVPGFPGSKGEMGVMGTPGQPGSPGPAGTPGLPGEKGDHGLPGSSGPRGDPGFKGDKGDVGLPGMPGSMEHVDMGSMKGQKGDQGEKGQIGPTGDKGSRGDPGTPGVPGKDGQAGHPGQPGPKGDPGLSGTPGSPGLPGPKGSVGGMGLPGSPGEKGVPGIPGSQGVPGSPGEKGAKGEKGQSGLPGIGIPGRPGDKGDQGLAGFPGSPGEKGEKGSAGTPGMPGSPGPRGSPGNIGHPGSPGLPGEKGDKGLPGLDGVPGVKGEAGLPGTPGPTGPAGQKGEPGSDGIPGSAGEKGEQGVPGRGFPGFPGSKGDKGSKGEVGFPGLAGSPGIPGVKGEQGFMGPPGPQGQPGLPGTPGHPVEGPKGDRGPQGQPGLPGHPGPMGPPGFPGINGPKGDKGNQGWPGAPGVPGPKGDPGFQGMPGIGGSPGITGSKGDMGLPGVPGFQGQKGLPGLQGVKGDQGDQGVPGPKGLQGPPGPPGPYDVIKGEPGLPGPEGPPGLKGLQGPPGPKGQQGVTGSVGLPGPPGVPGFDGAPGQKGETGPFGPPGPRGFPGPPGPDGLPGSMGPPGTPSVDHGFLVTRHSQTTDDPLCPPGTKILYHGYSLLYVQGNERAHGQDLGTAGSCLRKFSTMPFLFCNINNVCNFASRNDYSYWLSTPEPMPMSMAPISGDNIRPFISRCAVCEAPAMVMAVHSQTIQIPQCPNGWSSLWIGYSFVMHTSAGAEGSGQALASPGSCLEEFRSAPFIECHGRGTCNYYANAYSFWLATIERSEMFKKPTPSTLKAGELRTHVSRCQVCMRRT
T2 sequence (P08122 184-1707): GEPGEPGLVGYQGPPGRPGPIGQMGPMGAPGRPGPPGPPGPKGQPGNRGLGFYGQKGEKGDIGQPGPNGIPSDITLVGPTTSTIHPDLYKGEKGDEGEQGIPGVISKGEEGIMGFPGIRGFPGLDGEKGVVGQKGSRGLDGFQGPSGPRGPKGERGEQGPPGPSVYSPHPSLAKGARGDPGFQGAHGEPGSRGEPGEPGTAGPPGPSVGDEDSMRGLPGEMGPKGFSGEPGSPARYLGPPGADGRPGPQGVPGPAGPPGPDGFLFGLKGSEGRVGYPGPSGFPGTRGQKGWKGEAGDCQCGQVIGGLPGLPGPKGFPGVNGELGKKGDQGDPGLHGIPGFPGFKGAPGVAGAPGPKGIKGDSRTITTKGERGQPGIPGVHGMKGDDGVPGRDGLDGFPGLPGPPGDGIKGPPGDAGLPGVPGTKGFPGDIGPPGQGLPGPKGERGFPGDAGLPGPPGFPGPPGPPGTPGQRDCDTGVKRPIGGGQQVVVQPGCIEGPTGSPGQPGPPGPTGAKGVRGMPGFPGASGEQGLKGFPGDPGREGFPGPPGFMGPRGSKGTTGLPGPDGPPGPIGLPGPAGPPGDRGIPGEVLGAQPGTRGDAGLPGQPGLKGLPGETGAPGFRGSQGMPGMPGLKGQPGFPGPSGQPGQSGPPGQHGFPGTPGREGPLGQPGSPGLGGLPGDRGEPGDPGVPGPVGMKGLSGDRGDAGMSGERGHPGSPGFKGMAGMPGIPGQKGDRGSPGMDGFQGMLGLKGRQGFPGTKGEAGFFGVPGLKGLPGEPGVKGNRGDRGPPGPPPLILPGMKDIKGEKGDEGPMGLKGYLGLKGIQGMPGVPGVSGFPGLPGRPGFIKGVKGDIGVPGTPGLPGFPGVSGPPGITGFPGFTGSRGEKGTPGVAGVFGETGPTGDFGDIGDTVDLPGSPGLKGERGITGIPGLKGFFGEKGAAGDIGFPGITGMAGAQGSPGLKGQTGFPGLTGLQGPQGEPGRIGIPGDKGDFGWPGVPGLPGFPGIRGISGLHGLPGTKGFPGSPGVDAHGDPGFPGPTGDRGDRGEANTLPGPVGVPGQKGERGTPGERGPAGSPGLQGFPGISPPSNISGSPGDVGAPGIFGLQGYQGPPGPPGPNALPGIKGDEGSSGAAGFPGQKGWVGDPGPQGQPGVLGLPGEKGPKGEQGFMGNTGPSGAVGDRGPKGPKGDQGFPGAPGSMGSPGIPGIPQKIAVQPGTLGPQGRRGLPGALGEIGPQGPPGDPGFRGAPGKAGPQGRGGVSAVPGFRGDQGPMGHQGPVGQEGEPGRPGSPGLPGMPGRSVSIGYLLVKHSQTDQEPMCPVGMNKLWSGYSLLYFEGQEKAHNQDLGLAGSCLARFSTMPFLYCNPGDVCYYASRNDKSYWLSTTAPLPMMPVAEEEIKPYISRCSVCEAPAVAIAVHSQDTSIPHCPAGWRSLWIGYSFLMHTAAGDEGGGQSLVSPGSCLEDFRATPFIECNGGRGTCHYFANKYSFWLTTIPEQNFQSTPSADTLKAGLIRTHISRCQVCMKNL
Protocol: Localization of collagen IV was compared to the localization of CREKA (SEQ ID NO: 1) peptide in breast tumors.
Immunostaining was performed after injection of 100 μg FITC-CREKA (SEQ ID NO: 1) into the tail vein of MMTV PyMT mice. After 15 minutes, tumors were dissected, fixed, stained for collagen IV and counter-stained with DAPI essentially as follows. Collagen IV was detected by immunofluorescence as described in Engvall et al., supra, 1982, with the following modifications. Briefly, mouse tissues were fixed with 3.7% paraformaldehyde for two hours, washed with PBS, and incubated in glycine (0.01%, pH 7.4) for 12 hours to quench autofluorescence of the samples. Specimens were then treated with increasing concentrations of sucrose (12%, 15%, 18%), embedded in Tissue-Tek© (Miles Inc.), frozen, and cut into 5 μm sections. After an overnight incubation with rabbit antiserum to collagen IV (diluted 1:40 in PBS) at 4° C. (Engvall et al., supra, 1982), the sections were washed with PBS and incubated with rhodamine-labeled goat anti-rabbit antibody (DAKO) at a dilution of 1:30 for 30 minutes. After washing, the sections were mounted in 90% glycerol.

[3] = system: vasculature of MDA-MB-435 human breast cancer cell xenografts; test: In vivo homing of phage to MDA-MB-435 xenografts in nude mice (phage recovery, pfu); design: species or system mouse; conditions: co-injection
Protocol: Phage preparations (1×10^9 plaque forming units (pfu)) of CREKA (SEQ ID NO: 1)-displaying phage were injected into tumor-bearing mice and subsequently recovered from breast tumors and a variety of normal tissues. […] The CREKA (SEQ ID NO: 1) phage also homed to the vasculature of MDA-MB-435 human breast cancer cell xenografts grown in the mammary fat pad of nude mice with a 20-fold specificity over non-recombinant phage as shown in FIG. 1B.
In vivo phage display screens were performed with 65 to 75 day old transgenic MMTV PyMT mice obtained from Dr. William Muller. MDA-MB-435 tumors were generated as described in Laakkonen et al., Nat. Med. 7:751-755 (2002). Briefly, 10^6 MDA-MB-435 cells in 100 μl phosphate buffered saline (PBS) were injected into the mammary fat pad of nude mice. Tumors were grown for five weeks before the animals were used in vivo studies. In vivo phage screening was performed as described in Porkka et al., Proc. Natl. Acad. Sci., USA 99:7444-7449 (2002), with a few modifications. Briefly, mice were anesthetized with avertin and then injected intravenously with 10^9 pfu of the CX7C library. Mice were perfused through the heart with 10 ml of PBS seven minutes after the injection. […] Cell-adherent phage particles were recovered by infecting BL21 bacteria (Novagen), and the number of phage quantified by plaque assay.

mitochondrial membranes = conditions: concentration of 10 μM; cited from earlier work
tumor = test: In vivo tumor homing of CREKA phage with co-injection of gelatin
[4] = after two hours, localizing outside the blood vessels

Substance | detection of labeled peptide in MMTV PyMT tumors (MMTV PyMT tumors) | distribution of labeled peptide within tumor (MMTV PyMT tumors; 15 minutes after the injection) | distribution of labeled peptide within tumor (MMTV PyMT tumors; [4]) | detection of labeled peptide in normal tissues (MMTV PyMT tumors) | also measured
Fibronectin [reference compound] | – | – | – | – | effect of fibronectin on phage binding (clone #3 fragment / immobilized CREKA) ([1]; fibronectin, FIG. 5B): did not significantly reduce
FITC-CREKA: fluorescein (FITC) labeled CREKA (SEQ ID NO: 1) peptide ({FITC}-CREKA) | detected | primarily in the tumor periphery | detected in the entire tumor | not observed | co-localization with collagen IV in tumors [2]: partially co-localized
CREKA [CREKA peptide] | – | – | – | – | inhibition of clone #3 collagen IV fragment phage binding to immobilized CREKA ([1]; 0.01 mg, 0.05 mg or 0.1 mg soluble peptide in 100 μl PBS, FIG. 5A): inhibited; effect of co-injected free peptide on homing of phage displaying the control peptide [3]: did not inhibit; effect of co-injected free peptide on CREKA-displaying phage recovery from breast cancer tissue ([3]; excess of free peptide, FIG. 1B): inhibited
D(KLAKLAK)2 | – | – | – | – | mitochondrial swelling (mitochondrial membranes): marked mitochondrial swelling
gelatin | – | – | – | – | effect of co-injection on in vivo tumor homing of CREKA-expressing phage (tumor): completely blocked
rhodamine-labeled CREKA: rhodamine labeled CREKA (SEQ ID NO: 1) peptide (also: rhodamine label, site not given here) | detected | primarily in the tumor periphery | detected in the entire tumor | not observed | CREKA peptide staining in heart (MMTV PyMT tumors; heart, co-injected with FITC-tomato-lectin, FIG. 3F): negative
